Tests used:
[1] = system: thymidine dimers in DNA of H358 cells; assay: Nucleotide excision repair assay (thymidine dimer slot blot) after UVC; format: cell-based; details: 50 μM 1a, 24 hours after 40 J/m^2 UVC (untreated: 50%)
Procedure: Also shown are controls for no treatment (“c” minus 1a) or treatment with 1a only (“c” plus 1a). Each lane represents 60 μg protein. […] Each lane represents 60 μg protein.
For NER, a slot blot immunoassay was used to detect the loss of thymidine dimers from the DNA of UVC treated cells as previously described. An antibody specific for cyclobutane pyrimidine dimers, the major photoproduct produced by UVC treatment, was purchased from Kamiya Biomedical Co (Seattle, Wash.; anti-thymidine dimer, clone KTM53) and used at 1:40 dilution.

H358 cells = assay: Trypan blue exclusion viability assay; format: cell-based
[2] = system: histone H3 lysine 9 acetylation in H358 cells; assay: Western analysis of histone H3 acetylation/methylation in H358 cells; format: cell-based; details: 50 μM, 12 hours
Procedure: (A) Structures of 1a, and the acetylated side chain of a lysine residue within the polypeptide chain of a protein targeted by the acetylating enzyme (R1 and R2 are the main chain elements on both sides of the lysyl residue). (B) [^3H]-thymidine incorporation into DNA of H358 cells pulsed for 6 hrs at three different time points after the addition of increasing concentrations of 1a, i.e., at 6-12 hrs (12 hr curve), at 18-24 hours (24 hr curve), or at 42-48 hrs (48 hr curve). Incorporation is represented as a percentage relative to control (untreated) cells. (C) Cell cycle analysis of propidium iodide-stained cells harvested at various times after addition of 50 μM 1a. % of cells in G1, S, and G2 represents the average of two independent profiles. (D) Western analysis of histone H3 lysine 9 acetylation, histone H3 lysine 56 acetylation, histone H3 lysine 9 methylation, and total histone H3, before “c” or at the indicated times after addition of 50 μM 1a. Each lane represents 60 μg cellular protein.
Each lane represents 175 μg cell lysate protein.
One 6 cm culture dish of H358 cells per treatment was used. Cells were treated with 50 μM spm-2, spm-3, or spd-3a for 12 hours. Histones were extracted from cells in 0.2M H2SO4 (as described in Furuta, T., et al (2003) J. Biol. Chem. 278: 20303-20312), followed by SDS-PAGE and Western blotting. Blots were probed with anti-acetyl histone H3-lysine 9 (Upstate Biotechnology, Inc.)
Cells were lysed by adding 1 mL of 0.2 M H2SO4. […]
One 10-cm plate of H358 lung cancer cells (about 2×10^6 cells), grown in DMEM+10% Fetal bovine serum as described in reference, were treated for 24 hours with 50 μM 1a inhibitor. […] Treated cells and untreated (control) cells were harvested by lysing in buffer containing 10 mM Hepes pH 7.5, 100 mM NaCl, 300 mM sucrose, 3 mM MgCl2, 1 mM EDTA, 1 mM DTT, 0.5% Triton X-100, 1 mM PMSF, protease inhibitor pellet (Roche) and analyzed on 10% SDS-PAGE gels, followed by Western immunoblot analysis of total histone H3, methylated histone H3 (methylated on lysine 9), and acetylated histone H3 (acetylated on lysine 9). […]

DLD-1 colon cancer cells = assay: 96-well MTS viability assay, DLD-1; format: cell-based; details: single agent, 3 days
Procedure: (§1) Cells were plated in 96-well plates at 2000 cells per well and treated with the indicated doses of spd-3a. Cell viability was measured by the MTS assay 3 days later.
(§2) DLD-1 cells or H358 cells were plated in 96-well plates at 2000 cells per well and treated with the indicated doses of (A) spm-3 or (B) spm-2. (C) Cell viability was measured by the MTS assay 3 days later. Similar experiment using GT41 fibroblasts with spm2 or spm 3. Each assay point represents an average of duplicates.

GT41F skin fibroblasts = assay: 96-well MTS viability assay, GT41F fibroblasts; format: cell-based, human; details: spm single agent, 3 days
Procedure: as §1, §2

Row | Compound | decrease of thymidine dimers [1] [%] | viability at 50 µM (H358 cells; Homo sapiens, NCI-H358, 18 h, read-out: cell viability, single agent) [%] | cell viability, single agent (H358 cells; human, 24 h) [%] | histone H3K9 acetylation (Western) [2] | suppression of cancer cell growth and viability (DLD-1 colon cancer cells) | sensitivity of normal fibroblasts (GT41F skin fibroblasts)
1 | CC(C)(COP(=O)(O)OP(=O)(O)OC[C@H]1O[C@@H](n2cnc3c(N)ncnc32)[C@H](O)[C@@H]1OP(=O)(O)O)[C@@H](O)C(=O)NCCC(=O)NCCSCC(=O)NCCCNCCCCN [1a, spermidine[N1]-CoA] | 40 | ≥ 96 | ≥ 96 | – | – | –
2 | CC(=O)NCCSCC(=O)NCCCNCCCCNCCCN [spm-3] | – | – | – | suppress histone acetylation | effective as single agents | sensitivity similar to that of H358 lung cancer cells

— patent US10617656B2, “Methods of increasing the cytotoxicity of chemotherapeutic agents with multisubstrate inhibitors of histone, protein-Lys, polyamine acetylation, and polyamine metabolism” (Vanderbilt University, priority 2010, dated 2020)
